In ChEMBL document CHEMBL1148675, “Protein microarrays to study carbohydrate-recognition events” (Bioorg Med Chem Lett, 2006) one finds IC50 and Activity data, which are given here for three molecules.

The nature of experiment [1]: Inhibition of trivalent GlcNAc binding to wheat germ agglutinin without irradiation by microarray. Set-up: species or system Triticum aestivum.
Experiment [2] relates to Sambucus nigra. The experiment can be described thus: Binding affinity to Sambucus nigra A lectin by microarray at 0.5 uM.
Experiment [3] addresses T1, Ovalbumin (Gallus gallus) (UniProt P01012).
T1 sequence (whole entry): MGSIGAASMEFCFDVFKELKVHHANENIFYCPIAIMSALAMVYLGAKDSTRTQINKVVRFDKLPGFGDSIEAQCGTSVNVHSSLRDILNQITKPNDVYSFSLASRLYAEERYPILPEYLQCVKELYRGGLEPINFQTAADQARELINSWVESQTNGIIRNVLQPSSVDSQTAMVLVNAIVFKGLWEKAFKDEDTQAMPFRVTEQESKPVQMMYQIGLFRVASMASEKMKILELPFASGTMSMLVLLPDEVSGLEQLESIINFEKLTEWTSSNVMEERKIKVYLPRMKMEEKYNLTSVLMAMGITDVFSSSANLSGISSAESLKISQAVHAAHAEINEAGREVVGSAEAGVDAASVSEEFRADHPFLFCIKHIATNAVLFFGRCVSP
The experiment can be described thus: Binding affinity to ovalbumin by microarray at 0.5 uM.

The target of experiment [4] is Antithrombin-III (Homo sapiens) (UniProt P01008). Put plainly: Binding affinity to antithrombin by microarray at 0.5 uM.
Antithrombin-III (Homo sapiens), sequence (P01008 whole entry): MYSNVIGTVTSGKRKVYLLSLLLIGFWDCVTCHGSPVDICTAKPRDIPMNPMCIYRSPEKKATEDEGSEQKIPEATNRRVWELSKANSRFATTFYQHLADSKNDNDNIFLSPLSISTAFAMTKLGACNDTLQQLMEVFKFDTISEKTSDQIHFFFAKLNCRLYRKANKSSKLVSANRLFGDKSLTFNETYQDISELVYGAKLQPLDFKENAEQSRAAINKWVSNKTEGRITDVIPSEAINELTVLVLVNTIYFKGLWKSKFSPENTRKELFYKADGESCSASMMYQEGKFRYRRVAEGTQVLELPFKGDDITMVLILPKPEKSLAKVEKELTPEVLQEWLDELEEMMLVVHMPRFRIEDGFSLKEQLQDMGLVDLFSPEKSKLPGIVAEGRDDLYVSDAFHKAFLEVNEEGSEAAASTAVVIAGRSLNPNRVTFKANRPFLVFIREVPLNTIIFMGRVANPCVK
Experiment [5] is filed under the species Homo sapiens. The experiment can be described thus: Binding affinity to pepsin by microarray at 0.5 uM.
The species named for experiment [6] is Homo sapiens. Put plainly: Binding affinity to GST by microarray at 0.5 uM.
In experiment [7] the target is Trypsin (Homo sapiens) (UniProt P07477+P07478+P35030). The experiment can be described thus: Binding affinity to trypsin by microarray at 0.5 uM. Format: protein assay.
The species entered for experiment [8] is Homo sapiens. Put plainly: Binding affinity to amylase by microarray at 0.5 uM.
The species entered for experiment [9] is Homo sapiens. Put plainly: Binding affinity to RNase A by microarray at 0.5 uM.
For experiment [10], the species on record is Homo sapiens. The experiment can be described thus: Binding affinity to hyaluronidase by microarray at 0.5 uM.
The species named for experiment [11] is Homo sapiens. Put plainly: Binding affinity to myokinase by microarray at 0.5 uM.
The species entered for experiment [12] is Homo sapiens. Put plainly: Binding affinity to collagenase by microarray at 0.5 uM.
Experiment [13] has as its system Canavalia. The experiment can be described thus: Binding affinity to Concanavalin A by microarray at 0.5 uM.
A short description of experiment [14]: Inhibition of trivalent GlcNAc binding to wheat germ agglutinin with irradiation by microarray. Also on record: species or system Triticum aestivum.
Experiment [15] addresses Streptavidin (Streptomyces avidinii) (UniProt P22629). Put plainly: Binding affinity to streptavidin by microarray.
Experiment [16] concerns Triticum aestivum. The experiment can be described thus: Binding affinity to wheat germ agglutinin by microarray at 0.5 uM.
For experiment [17], the species on record is Homo sapiens. Put plainly: Binding affinity to alkaline phosphatase by microarray at 0.5 uM.
The target in experiment [18] is Insulin (Homo sapiens) (UniProt P01308). Put plainly: Binding affinity to insulin by microarray at 0.5 uM.
Insulin (Homo sapiens), sequence (P01308 whole entry): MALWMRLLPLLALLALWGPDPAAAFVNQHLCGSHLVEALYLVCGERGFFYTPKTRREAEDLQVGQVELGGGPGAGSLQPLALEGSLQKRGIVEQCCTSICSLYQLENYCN
Experiment [19] addresses Prothrombin (Homo sapiens) (UniProt P00734). Put plainly: Binding affinity to thrombin by microarray at 0.5 uM.
In experiment [20] the test system is Aleuria aurantia. The experiment can be described thus: Binding affinity to Aleuria Aurantia lectin by microarray at 0.5 uM.
Experiment [21] concerns Ricinus communis. Put plainly: Binding affinity to Ricinus communis agglutinin 120 by microarray at 0.5 uM.

SMILES strings stand for the structures. Active and inactive are the calls of the source. The calls are words filed in the database; no cut-off is given here.

Streptavidin (Streptomyces avidinii), sequence (P22629 whole entry): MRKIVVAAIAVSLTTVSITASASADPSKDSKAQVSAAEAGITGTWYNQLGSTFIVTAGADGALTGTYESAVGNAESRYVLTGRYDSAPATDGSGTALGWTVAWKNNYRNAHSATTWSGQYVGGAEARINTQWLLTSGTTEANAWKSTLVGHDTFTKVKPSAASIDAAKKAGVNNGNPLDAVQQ

As a reminder, the IC50 is the concentration at which inhibition is half-maximal. Low values mean greater potency, high ones weaker potency. For `CC(=O)N[C@H]1[C@H](OCCNC(=O)CCC(=O)NCCCC[C@H](NC(=O)CCC(=O)NCCO[C@@H]2O[C@H](CO)[C@@H](O)[C@H](O)[C@H]2NC(C)=O)C(=O)N[C@@H](CCCCNC(=O)[C@H](COCc2ccc(C(=O)c3ccccc3)cc2)NC(=O)CCC(=O)NCCO[C@@H]2O[C@H](CO)[C@@H](O)[C@H](O)[C@H]2NC(C)=O)C(=O)NCCCOCCOCCOCCCNC(=O)CCC(=O)NCCOCCOCCNC(=O)CCCCN2CCC(C)(C)/C2=C\C=C\C2=[N+](C)c3ccccc3C2(C)C)O[C@H](CO)[C@@H](O)[C@@H]1O`, the results for the IC50 in experiment [1] and in experiment [14] were 7.9 mM and 17 mM, respectively. Further, the result in experiment [2], in experiment [3], in [4], in [5], in experiment [6] and in experiment [7] was inactive. The result in experiment [8], in experiment [9], in [10], in experiment [11], in experiment [12] and in [13] was inactive. Besides, the outcome in experiment [15], in [17], in experiment [18], in experiment [19] and in experiment [20] was inactive. In experiment [16], the outcome was Active.

As for `C[C@H]1O[C@H](OCCNC(=O)CCC(=O)NCCCC[C@H](NC(=O)CCC(=O)NCCO[C@H]2O[C@H](C)[C@H](O)[C@H](O)[C@H]2O)C(=O)N[C@@H](CCCCNC(=O)[C@H](COCc2ccc(C(=O)c3ccccc3)cc2)NC(=O)CCC(=O)NCCO[C@H]2O[C@H](C)[C@H](O)[C@H](O)[C@H]2O)C(=O)NCCCOCCOCCOCCCNC(=O)CCC(=O)NCCOCCOCCNC(=O)CCCCN2CCC(C)(C)/C2=C\C=C\C2=[N+](C)c3ccccc3C2(C)C)[C@H](O)[C@@H](O)[C@H]1O`, the outcome in experiment [2], in experiment [3], in experiment [4], in experiment [5], in experiment [6] and in experiment [7] was inactive. Further, the result in experiment [8], in experiment [9], in [10], in experiment [11], in [12] and in experiment [13] was inactive. The result in experiment [15], in [16], in [17], in experiment [18] and in [19] was inactive. The outcome in experiment [20] was Active.

As for `CC(=O)N[C@H]1[C@@H](OCCNC(=O)CCC(=O)NCCCC[C@H](NC(=O)CCC(=O)NCCO[C@H]2O[C@H](CO)[C@@H](O[C@@H]3O[C@H](CO)[C@H](O)[C@H](O)[C@H]3O)[C@H](O)[C@H]2NC(C)=O)C(=O)N[C@@H](CCCCNC(=O)[C@H](COCc2ccc(C(=O)c3ccccc3)cc2)NC(=O)CCC(=O)NCCO[C@H]2O[C@H](CO)[C@@H](O[C@@H]3O[C@H](CO)[C@H](O)[C@H](O)[C@H]3O)[C@H](O)[C@H]2NC(C)=O)C(=O)NCCCOCCOCCOCCCNC(=O)CCC(=O)NCCOCCOCCNC(=O)CCCCN2CCC(C)(C)/C2=C\C=C\C2=[N+](C)c3ccccc3C2(C)C)O[C@H](CO)[C@@H](O[C@@H]2O[C@H](CO)[C@H](O)[C@H](O)[C@H]2O)[C@@H]1O`, the outcome in experiment [2], in experiment [3], in experiment [4], in experiment [5], in experiment [6] and in experiment [7] was inactive. Further, the outcome in experiment [8], in [9], in experiment [10], in experiment [11], in experiment [12] and in experiment [13] was inactive. The result in [15], in [17], in experiment [18], in experiment [19] and in experiment [20] was inactive. Also, the result in experiment [16] and in [21] was Active.
